Assays:
Type in all cases: biochemical
[1] = molecular target: Rasamsonia emersonii beta-glucosidase variant polypeptide 1 (SEQ ID NO: 2 with substitutions M90L + M335V + M485I) (Rasamsonia emersonii, UniProt Q8TGI8, M335V/M485I/M90L); assay: Kinetics of cellobiose hydrolysis with and without 20 g/l glucose (NMR, MTP scale, model fit), variant polypeptide 1; details: 10 g/l cellobiose, pH 4.5, 65° C., 20 min; Km set to 0.1 g/L
Protocol: (§1) For the follow-up experiment, five dilutions were made: 2-fold, 4-fold, 8-fold, 16-fold and 32-fold. The beta-glucosidase activity of the variant polypeptides and the wild-type beta-glucosidase was further analyzed in a MTP scale activity assay using cellobiose as substrate and monitoring cellobiose hydrolysis via glucose formation with NMR of the undiluted sample and the five dilutions. The same assay was performed for all dilutions in presence of 20 g/l glucose to determine the glucose tolerance. […] Subsequently, cellobiose and glucose levels in the samples were analyzed with NMR.
(§2) After enzymatic incubation, 100 μl of internal standard solution containing 20 g/I maleic acid and EDTA (40 g/L) in demineralized water, was added to each sample. […] 1D ^1H NMR spectra were recorded on a Bruker Avance III HD 500 MHz, equipped with a He cooled cryo-probe, using a pulse program without water suppression at a temperature of 29° C. with a 90 degrees excitation pulse, acquisition time of 2.7 s and relaxation delay of 30 s. The analyte concentrations (in g/L) were calculated based on the following signals (δ relative to DSS): Cellobiose: H1′ cellobiose peak at 4.50 ppm (d, 1H, J=8 Hz); Glucose: α-H1 glucose/α-H1 cellobiose peak at 5.22 ppm (d, 0.38 H, J=4 Hz). The glucose concentration was determined after correction for cellobiose. […]

[2] = molecular target: T1, Rasamsonia emersonii beta-glucosidase, wild-type, SEQ ID NO: 2 (Rasamsonia emersonii, UniProt Q8TGI8); assay: Kinetics of cellobiose hydrolysis with and without 20 g/l glucose (NMR, MTP scale, model fit), wild type; details: 10 g/l cellobiose, pH 4.5, 65° C., 20 min; Km set to 0.1 g/L
T1 sequence (Q8TGI8 20-857): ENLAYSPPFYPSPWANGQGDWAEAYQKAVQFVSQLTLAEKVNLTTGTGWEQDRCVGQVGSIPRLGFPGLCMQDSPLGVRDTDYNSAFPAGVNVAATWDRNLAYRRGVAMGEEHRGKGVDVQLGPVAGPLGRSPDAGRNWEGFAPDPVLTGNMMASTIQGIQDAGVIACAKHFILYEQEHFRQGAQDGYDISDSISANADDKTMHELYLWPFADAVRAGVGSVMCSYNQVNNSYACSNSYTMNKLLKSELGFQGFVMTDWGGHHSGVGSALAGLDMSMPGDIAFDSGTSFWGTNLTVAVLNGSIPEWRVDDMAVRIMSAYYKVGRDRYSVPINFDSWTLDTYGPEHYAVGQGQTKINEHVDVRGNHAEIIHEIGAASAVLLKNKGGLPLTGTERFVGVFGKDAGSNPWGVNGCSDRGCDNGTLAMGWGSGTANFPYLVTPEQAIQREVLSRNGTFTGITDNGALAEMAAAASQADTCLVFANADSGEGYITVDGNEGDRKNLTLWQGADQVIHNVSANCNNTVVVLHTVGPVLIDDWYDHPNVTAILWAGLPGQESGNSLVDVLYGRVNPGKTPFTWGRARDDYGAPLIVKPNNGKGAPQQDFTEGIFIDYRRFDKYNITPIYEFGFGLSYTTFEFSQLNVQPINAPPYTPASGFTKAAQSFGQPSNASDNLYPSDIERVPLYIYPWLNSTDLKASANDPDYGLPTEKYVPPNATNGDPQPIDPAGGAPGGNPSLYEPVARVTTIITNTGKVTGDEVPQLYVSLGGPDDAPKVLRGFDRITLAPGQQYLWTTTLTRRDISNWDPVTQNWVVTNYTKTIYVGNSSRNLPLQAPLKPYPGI
Protocol: as §1, §2

[3] = molecular target: Rasamsonia emersonii beta-glucosidase variant polypeptide 3 (SEQ ID NO: 2 with substitution G142S) (Rasamsonia emersonii, UniProt Q8TGI8, G142S); assay: Kinetics of cellobiose hydrolysis with and without 20 g/l glucose (NMR, MTP scale, model fit), variant polypeptide 3; details: 10 g/l cellobiose, pH 4.5, 65° C., 20 min; Km set to 0.1 g/L
Protocol: as §1, §2

[4] = molecular target: Rasamsonia emersonii beta-glucosidase variant polypeptide 4 (SEQ ID NO: 2 with substitution L606A) (Rasamsonia emersonii, UniProt Q8TGI8, L606A); assay: Kinetics of cellobiose hydrolysis with and without 20 g/l glucose (NMR, MTP scale, model fit), variant polypeptide 4; details: 10 g/l cellobiose, pH 4.5, 65° C., 20 min; Km set to 0.1 g/L
Protocol: as §1, §2

[5] = molecular target: Rasamsonia emersonii beta-glucosidase variant polypeptide 2 (SEQ ID NO: 2 with substitution N103A) (Rasamsonia emersonii, UniProt Q8TGI8, N103A); assay: Kinetics of cellobiose hydrolysis with and without 20 g/l glucose (NMR, MTP scale, model fit), variant polypeptide 2; details: 10 g/l cellobiose, pH 4.5, 65° C., 20 min; Km set to 0.1 g/L
Protocol: as §1, §2

[6] = molecular target: T1, Rasamsonia emersonii beta-glucosidase, wild-type, SEQ ID NO: 2; assay: Glucose inhibition of initial rate of cellobiose hydrolysis, 100 ml scale (HPLC), wild type; details: 20 g/l glucose, 30 mM cellobiose, pH 4.5, 62° C., 4.5 μg/ml enzyme; read-out: Ratio (V0 in presence of glucose/V0 in absence of glucose)
Protocol: The hits selected from the MTP scale assay were subsequently further characterized by monitoring cellobiose conversion at multiple time points at a larger scale. The beta-glucosidase having the amino acid sequence of SEQ ID NO: 2 was used as reference (parent/wild-type beta-glucosidase). The assay was done as follows: the variant polypeptides and the reference beta-glucosidase were incubated at a concentration of 4.5 μg/ml in a 100 mM NaAc-buffer pH 4.5 with 30 mM cellobiose in a final volume of 100 ml for 2 hours at 62° C. under continuous stirring. […] The glucose and cellobiose content of the samples was determined using a High-Performance Liquid Chromatography System (Agilent 1100) equipped with a refection index detector (Agilent 1260 Infinity). […] The glucose and cellobiose were identified and quantified according to the retention time, which was compared to the external glucose and cellobiose standards ranging from 0.2; 0.4; 1.0; 2.0 g/l.
The concentration cellobiose was plotted against time and the linear part of this curve (the linear part of the cellobiose hydrolysis) was used to calculate the V0 (the initial rate of cellobiose hydrolysis) in the presence and absence of 20 g/l glucose. The ratio of these two calculated rates (V0 in presence of glucose/V0 in absence of glucose) was calculated for the wild-type beta-glucosidase and the variant polypeptides and is listed in Table 2. […]

Chain of Rasamsonia emersonii beta-glucosidase variant polypeptide 2 (SEQ ID NO: 2 with substitution N103A) (Q8TGI8 entry or part of it N103A): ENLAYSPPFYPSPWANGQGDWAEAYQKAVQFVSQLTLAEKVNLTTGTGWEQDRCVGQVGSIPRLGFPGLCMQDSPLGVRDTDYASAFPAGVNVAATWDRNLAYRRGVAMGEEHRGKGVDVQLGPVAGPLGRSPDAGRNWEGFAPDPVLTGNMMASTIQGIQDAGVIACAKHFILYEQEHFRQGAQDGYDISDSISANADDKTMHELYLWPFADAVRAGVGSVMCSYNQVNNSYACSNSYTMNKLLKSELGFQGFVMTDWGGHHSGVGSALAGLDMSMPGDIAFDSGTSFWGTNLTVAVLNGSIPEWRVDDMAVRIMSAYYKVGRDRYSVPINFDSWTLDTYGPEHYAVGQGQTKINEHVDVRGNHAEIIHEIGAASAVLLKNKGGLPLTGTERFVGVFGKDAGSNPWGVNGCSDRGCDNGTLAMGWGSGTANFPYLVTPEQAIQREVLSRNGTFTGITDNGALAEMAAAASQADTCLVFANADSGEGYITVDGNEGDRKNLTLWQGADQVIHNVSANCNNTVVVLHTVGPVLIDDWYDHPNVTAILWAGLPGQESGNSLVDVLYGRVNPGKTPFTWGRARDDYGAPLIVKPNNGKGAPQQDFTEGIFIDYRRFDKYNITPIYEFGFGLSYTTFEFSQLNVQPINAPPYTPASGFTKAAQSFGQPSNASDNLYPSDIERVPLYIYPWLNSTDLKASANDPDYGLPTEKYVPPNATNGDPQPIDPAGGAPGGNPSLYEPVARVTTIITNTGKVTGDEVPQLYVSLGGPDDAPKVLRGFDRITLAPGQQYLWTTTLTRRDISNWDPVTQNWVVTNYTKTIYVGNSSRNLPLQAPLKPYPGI
Chain of Rasamsonia emersonii beta-glucosidase variant polypeptide 3 (SEQ ID NO: 2 with substitution G142S) (Q8TGI8 entry or part of it G142S): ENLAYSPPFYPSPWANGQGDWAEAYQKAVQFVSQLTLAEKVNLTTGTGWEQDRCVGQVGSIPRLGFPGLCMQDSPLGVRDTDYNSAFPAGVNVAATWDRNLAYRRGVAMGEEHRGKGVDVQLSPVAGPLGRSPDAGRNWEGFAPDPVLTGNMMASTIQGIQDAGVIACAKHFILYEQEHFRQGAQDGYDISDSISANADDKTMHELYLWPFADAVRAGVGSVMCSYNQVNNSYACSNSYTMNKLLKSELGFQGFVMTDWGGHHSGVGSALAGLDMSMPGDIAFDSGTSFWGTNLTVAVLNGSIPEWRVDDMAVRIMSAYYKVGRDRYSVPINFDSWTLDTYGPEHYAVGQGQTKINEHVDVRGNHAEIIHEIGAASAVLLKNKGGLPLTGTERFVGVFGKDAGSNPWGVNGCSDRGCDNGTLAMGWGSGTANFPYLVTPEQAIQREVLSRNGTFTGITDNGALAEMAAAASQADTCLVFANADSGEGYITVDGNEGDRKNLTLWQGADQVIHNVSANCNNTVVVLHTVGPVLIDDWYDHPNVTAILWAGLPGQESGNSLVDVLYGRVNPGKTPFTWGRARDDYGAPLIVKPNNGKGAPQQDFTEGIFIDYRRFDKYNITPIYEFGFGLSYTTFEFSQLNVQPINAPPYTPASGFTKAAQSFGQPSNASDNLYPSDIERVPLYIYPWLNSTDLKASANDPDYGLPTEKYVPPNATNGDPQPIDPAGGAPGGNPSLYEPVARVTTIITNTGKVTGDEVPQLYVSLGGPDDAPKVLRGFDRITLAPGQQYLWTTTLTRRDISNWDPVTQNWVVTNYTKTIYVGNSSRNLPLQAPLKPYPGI
Chain of Rasamsonia emersonii beta-glucosidase variant polypeptide 1 (SEQ ID NO: 2 with substitutions M90L + M335V + M485I) (Q8TGI8 entry or part of it M90L/M335V/M485I): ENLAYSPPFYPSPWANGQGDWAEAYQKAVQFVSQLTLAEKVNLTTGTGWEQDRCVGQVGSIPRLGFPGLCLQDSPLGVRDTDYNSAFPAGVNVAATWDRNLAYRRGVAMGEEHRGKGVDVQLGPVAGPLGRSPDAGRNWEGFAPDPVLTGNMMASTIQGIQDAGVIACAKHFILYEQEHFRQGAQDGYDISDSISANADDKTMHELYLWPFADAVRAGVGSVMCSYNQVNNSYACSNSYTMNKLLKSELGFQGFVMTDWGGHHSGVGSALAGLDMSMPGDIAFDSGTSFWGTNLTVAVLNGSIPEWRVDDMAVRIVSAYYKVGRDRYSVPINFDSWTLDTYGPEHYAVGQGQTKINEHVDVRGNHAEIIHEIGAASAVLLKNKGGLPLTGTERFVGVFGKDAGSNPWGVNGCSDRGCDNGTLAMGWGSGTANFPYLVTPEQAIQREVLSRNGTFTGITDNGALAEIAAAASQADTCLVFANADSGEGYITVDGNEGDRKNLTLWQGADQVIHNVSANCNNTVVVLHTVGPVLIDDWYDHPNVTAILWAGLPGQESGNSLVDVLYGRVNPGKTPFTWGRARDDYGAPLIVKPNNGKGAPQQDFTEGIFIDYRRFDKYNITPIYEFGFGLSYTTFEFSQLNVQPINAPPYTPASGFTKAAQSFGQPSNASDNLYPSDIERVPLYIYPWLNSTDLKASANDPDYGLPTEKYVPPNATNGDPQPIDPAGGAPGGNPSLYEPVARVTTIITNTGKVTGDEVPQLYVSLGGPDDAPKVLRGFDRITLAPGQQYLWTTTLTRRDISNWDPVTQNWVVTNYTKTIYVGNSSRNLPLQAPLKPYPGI
Chain of Rasamsonia emersonii beta-glucosidase variant polypeptide 4 (SEQ ID NO: 2 with substitution L606A) (Q8TGI8 entry or part of it L606A): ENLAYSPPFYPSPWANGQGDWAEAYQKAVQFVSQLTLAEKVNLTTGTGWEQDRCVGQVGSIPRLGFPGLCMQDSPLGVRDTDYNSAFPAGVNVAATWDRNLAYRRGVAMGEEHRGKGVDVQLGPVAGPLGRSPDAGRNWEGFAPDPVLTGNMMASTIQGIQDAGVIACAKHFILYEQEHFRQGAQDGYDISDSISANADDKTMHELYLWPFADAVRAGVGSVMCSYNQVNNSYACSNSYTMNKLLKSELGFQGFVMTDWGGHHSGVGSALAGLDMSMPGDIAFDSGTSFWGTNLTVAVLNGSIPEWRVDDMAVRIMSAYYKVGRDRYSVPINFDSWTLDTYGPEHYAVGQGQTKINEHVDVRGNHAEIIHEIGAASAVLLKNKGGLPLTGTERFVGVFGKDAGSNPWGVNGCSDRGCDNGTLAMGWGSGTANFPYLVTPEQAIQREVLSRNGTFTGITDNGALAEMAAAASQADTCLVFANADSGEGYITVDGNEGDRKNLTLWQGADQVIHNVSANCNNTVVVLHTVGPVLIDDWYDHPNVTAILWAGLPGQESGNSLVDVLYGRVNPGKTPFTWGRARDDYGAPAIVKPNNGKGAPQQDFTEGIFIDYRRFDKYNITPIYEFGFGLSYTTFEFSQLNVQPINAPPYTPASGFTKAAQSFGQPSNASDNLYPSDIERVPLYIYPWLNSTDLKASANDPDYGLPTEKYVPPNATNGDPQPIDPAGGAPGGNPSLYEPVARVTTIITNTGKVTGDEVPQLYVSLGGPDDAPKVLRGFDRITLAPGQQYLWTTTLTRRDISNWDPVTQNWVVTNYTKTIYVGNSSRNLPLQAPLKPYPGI

Row | SMILES | kcat (cellobiose), model prediction [1] [unitless] | kcat (cellobiose), model prediction [2] [unitless] | kcat (cellobiose), model prediction [3] [unitless] | kcat (cellobiose), model prediction [4] [unitless] | kcat (cellobiose), model prediction [5] [unitless] | activity at 20000 µg/mL [6] [%]
1 | OC[C@H]1O[C@@H](O[C@H]2[C@H](O)[C@@H](O)C(O)O[C@@H]2CO)[C@H](O)[C@@H](O)[C@@H]1O (stereo partly drawn) [cellobiose] | 0.9 | 1.0 | 0.8 | 2.7 | 1.1 | –
2 | OC[C@H]1OC(O)[C@H](O)[C@@H](O)[C@@H]1O (stereo partly drawn) [glucose] | – | – | – | – | – | 18

— patent US10808235B2, “Beta-glucosidase and uses thereof” (priority 2015, dated 2020)
